We go through three compounds from patent US20020160091A1, “Acesulfame salt, process for its preparation and its use” (priority 2001, published 2002).

The conditions of data set [1]: known property named for comparison; cited from earlier work.
The conditions of data set [2]: known property named for comparison; cited from earlier work. The source holds these as a separate data set.
Where [3] appears, read: compared with acesulfame potassium salt.

On to `CC1=CC(=O)NS(=O)(=O)O1.N` [acesulfame ammonium salt], for which the “difference found by the testers in extensive taste tests” value (acesulfame ammonium versus acesulfame potassium) was “no difference was found”. Besides, under setting [3], the sweet taste result is “exactly the same pleasant sweet taste as the acesulfame potassium salt”, the sweetening power result was “the same sweetening power as the acesulfame potassium salt” and the sweetness profile result is on record as “exactly the same sweetness profile”.
On to `CC(=O)O.N` [ammonium acetate salt, ammonium acetate], for which the “hygroscopicity (comparison salt)” value in data set [1] was “hygroscopic”.
As for `Cl.N` [ammonium chloride salt, ammonium chloride], the “salty-bitter taste (comparison salt)” value in data set [2] is given as “salty-bitter”.
